# Patent publication US20040097594A1 (priority 1998, published 2004)
# Where two headings read alike, the source gives them in different places.
# Columns and labels:
# HIV-1 protease = HIV-1 protease (Human immunodeficiency virus type 1 group M subtype B, UniProt P04585); assay: biochemical
# HIV-1 (strain IIIB) = assay: microbe, parasite or virus in culture; type: cell-based; conditions: lower line of each compound's entry, read-out: IC50 (MT-4 cells)
# [1] = HIV-1 protease, upper line of each compound's entry, read-out: Ki (enzyme)
# [2] = Human immunodeficiency virus 1, 120 h, MT4 cells infected with HIV-1 strain IIIB, 5 days
Structure (SMILES),Ki (HIV-1 protease; [1]) [nM],IC50 (HIV-1 (strain IIIB); [2]) [nM],"IC50 (HIV-1 (strain IIIB); Human immunodeficiency virus 1, IIIB, MT4, 120 h, […]) [nM]",Ki (HIV-1 protease) [nM]
"O=C(N[C@@H](Cc1ccccc1)[C@H](O)CN(OC1CCOCC1)S(=O)(=O)c1ccc2c(c1)OCCO2)O[C@H]1CO[C@H]2OCC[C@H]21 [Compound 150, (3R,3aS,6aR)hexahydrofuro[2,3-b]furan-3-yl 1-benzyl-3-[(2,3-dihydro-1,4-benzodioxin-6-ylsulfonyl)(tetrahydro-2H-pyran-4-yloxy)amino]-2-hydroxypropylcarbamate]",< 1,≤ 100,,
"O=C(N[C@@H](Cc1ccccc1)[C@H](O)CN(OC1CCCC1)S(=O)(=O)c1ccc2[nH]ncc2c1)O[C@H]1CCOC1 [Compound 56, (3S)Tetrahydro-3-furanyl N-(1S,2R)-1-benzyl-3-[(cyclopentyloxy)(1H-indazol-5-ylsulfonyl)amino]-2-hydroxypropylcarbamate]",< 1,100 to 500,,
"Nc1cccc(S(=O)(=O)N(C[C@@H](O)[C@H](Cc2ccccc2)NC(=O)O[C@H]2CO[C@H]3OCC[C@H]32)OC2CCOCC2)c1 [Compound 147, (3R,3aS,6aR)hexahydrofuro[2,3-b]furan-3-yl 3-[[(3-aminophenyl)sulfonyl](tetrahydro-2H-pyran-4-yloxy)amino]-1-benzyl-2-hydroxypropylcarbamate]",< 1,,≤ 100,
"COC(=O)Nc1nc2cc(S(=O)(=O)N(C[C@@H](O)[C@H](Cc3ccccc3)NC(=O)OC3COCOC3)OC3CCCC3)ccc2[nH]1 [Compound 55, 1,3-Dioxan-5-yl N-(1S,2R)-1-benzyl-3-[(cyclopentyloxy)(2-{(methoxycarbonyl)amino]-1H-benzimidazol-5-ylsulfonyl)amino]-2-hydroxypropylcarbamate]",< 1,≤ 100,,
"CCN(C)C(=O)CNc1cccc(S(=O)(=O)N(CC(O)C(Cc2ccccc2)NC(=O)OC2COC3OCCC23)OC2CCCC2)c1 (mixture of isomers) [Example 170, (3R,3aS,6aR)hexahydrofuro[2,3-b]furan-3-yl N-[(1S,2R)-1-benzyl-3-((cyclopentyloxy)[3-(2-[ethyl(methyl)amino]-2-oxoethylamino)phenyl]sulfonylamino)-2-hydroxypropyl)carbamate and (3S,3aR,6aS)hexahydrofuro[2,3-b]furan-3-yl N-[(1S,2R)-1-benzyl-3-((cyclopentyloxy)[3-(2-[ethyl(methyl)amino]-2-oxoethylamino)phenyl]sulfonylamino)-2-hydroxypropyl]carbamate]",< 1,≤ 100,,
"NC(=O)C[C@H](NC(=O)c1ccc2ccccc2n1)C(=O)N[C@@H](Cc1ccccc1)[C@H](O)CN(OC1CCCC1)S(=O)(=O)c1cccc(N)c1 [Compound 49, (2S)-N^1-(1S,2R)-3-[[(3-aminophenyl)sulfonyl](cyclopentyloxy)amino]-1-benzyl-2-hydroxypropyl-2-[(2-quinolinylcarbonyl)amino]butanediamide]",< 1,≤ 100,,
CC(C)ON(C[C@@H](O)[C@H](Cc1ccccc1)NC(=O)O[C@H]1CO[C@H]2OCC[C@H]21)S(=O)(=O)c1cccc(N(C)C(=O)OC(C)(C)C)c1 [Compound 126],> 100,> 1000,,
"CS(=O)(=O)Nc1nc2cc(S(=O)(=O)N(C[C@@H](O)[C@H](Cc3ccccc3)NC(=O)O[C@H]3CO[C@H]4OCC[C@H]43)OC3CCCC3)ccc2[nH]1 [Compound 40, (3R,3aS,6aR)Hexahydrofuro[2,3-b]furan-3-yl-N-((1S,2R)-1-benzyl-3-(cyclopentyloxy)(2-[(methylsulfonyl)amino]benzimidazol-5-ylsulfonyl)amino-2-hydroxypropyl)carbamate]",< 1,≤ 100,,
COc1ccc(S(=O)(=O)N(C[C@@H](O)[C@H](Cc2ccccc2)NC(=O)OC(C)(C)C)OC(C)C)cc1 [Compound 6],,> 1000,,10 to 100
CNc1cccc(S(=O)(=O)N(C[C@@H](O)[C@H](Cc2ccccc2)NC(=O)O[C@H]2CO[C@H]3OCC[C@H]32)OC(C)C)c1 [Compound 127],< 1,≤ 100,,
